Data published in patent US7709475B2, “Selective inhibitors against Cdk4 and Cdk6 having aminothiazole skeleton” (Banyu Pharmaceutical Co., Ltd., priority 2004, dated 2010).
pIC50: −log10 of the molar value.

Columns and labels:
Format in all cases: biochemical
cyclin B-Cdk1 = molecular target: T1, cyclin B-Cdk1 (Homo sapiens, UniProt P06493); test: Cdk1 (Cdc2) inhibitory action: cyclin B-Cdk1 kinase activity; conditions: cyclin B-Cdk1, 50 μM ATP
T1 construct: made in house; host or cells: insect cell Sf9 (baculovirus)
T1 sequence (P06493 whole entry): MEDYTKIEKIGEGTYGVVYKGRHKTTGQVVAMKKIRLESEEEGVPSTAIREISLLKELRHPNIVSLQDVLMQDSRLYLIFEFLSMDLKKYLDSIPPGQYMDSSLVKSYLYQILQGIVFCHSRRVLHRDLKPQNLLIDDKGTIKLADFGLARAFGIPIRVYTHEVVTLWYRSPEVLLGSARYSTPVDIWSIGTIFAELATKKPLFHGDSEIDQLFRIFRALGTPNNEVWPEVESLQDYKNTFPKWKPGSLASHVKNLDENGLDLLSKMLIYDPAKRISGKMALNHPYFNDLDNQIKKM
T1 sequence (P14635 whole entry partner): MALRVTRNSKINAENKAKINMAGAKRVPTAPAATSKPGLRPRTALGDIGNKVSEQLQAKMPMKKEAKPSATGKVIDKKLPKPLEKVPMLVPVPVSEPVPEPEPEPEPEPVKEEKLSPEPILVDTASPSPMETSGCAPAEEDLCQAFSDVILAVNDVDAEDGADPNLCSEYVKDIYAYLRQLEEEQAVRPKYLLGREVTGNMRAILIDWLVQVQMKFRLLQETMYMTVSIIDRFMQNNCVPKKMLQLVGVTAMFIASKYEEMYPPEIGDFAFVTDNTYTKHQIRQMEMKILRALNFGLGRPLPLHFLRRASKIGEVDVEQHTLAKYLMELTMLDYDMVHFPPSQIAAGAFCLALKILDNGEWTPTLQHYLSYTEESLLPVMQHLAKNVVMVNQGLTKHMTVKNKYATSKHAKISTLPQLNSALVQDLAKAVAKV
Source text: (§1) The cDNA of Cdk1, and the cDNA of a fusion protein of cyclin B, an activating factor of Cdk1, and glutathione S-transferase, were integrated into a baculovirus expression vector to prepare a recombinant baculovirus. This was co-transfected into insect cell Sf9 to express an active complex of the cyclin B/glutathione S-transferase fusion protein-Cdk1 at a high level. The cells were recovered and solubilized, then the active complex was adsorbed onto Glutathione Sepharose, and a cyclin B-Cdk1 active complex was recovered using Precision Protease and was purified by HPLC column chromatography.
For the measurement of the activity of cyclin B-Cdk1, a synthetic peptide (Ala-Lys-Ala-Lys-Lys-Thr-Pro-Lys-Lys-Ala-Lys-Lys) was used as the substrate.
(§2) The reaction was performed by partially modifying the method of Kitagawa et al. [Oncogene, Vol. 7, 1067-1074 (1992)]. The volume of the reaction solution was 21.1 μL, and to the R buffer, purified cyclin B-Cdk1, 100 μM of the substrate peptide, 50 μM of non-labeled adenosine triphosphate (ATP), and 1 μCi of [γ-33P]-labeled ATP (2000 to 4000 Ci/mmole) were added to react at 30° C. for 30 minutes. Then, 10 μL of 350 mM phosphate buffer was added to the reaction system to terminate the reaction. The substrate peptide was adsorbed onto P81 paper filter on a 96-well plate, and then washed several times with 75 mM phosphate buffer. The radioactivity of the substrate peptide was measured with a liquid scintillation counter.
(§3) Addition of the compound according to the invention to the reaction system was carried out by first preparing a dilution series of solutions of the compound in dimethylsulfoxide (DMSO), and adding 1.1 μL of the dilutions. A control was provided by adding 1.1 μL of DMSO to the reaction system.
A representative compound of the compounds according to the invention was selected, and the IC50 value of this compound for the cyclin B-Cdk1 activity was determined.

cyclin H-Cdk7 = molecular target: T2, cyclin H-Cdk7 (Homo sapiens, UniProt P50613); test: Cdk7 inhibitory action: cyclin H-Cdk7 kinase activity; conditions: cyclin H-Cdk7, 50 μM ATP
T2 construct: made in house; host or cells: insect cell Sf9 (baculovirus)
T2 sequence (P50613 whole entry): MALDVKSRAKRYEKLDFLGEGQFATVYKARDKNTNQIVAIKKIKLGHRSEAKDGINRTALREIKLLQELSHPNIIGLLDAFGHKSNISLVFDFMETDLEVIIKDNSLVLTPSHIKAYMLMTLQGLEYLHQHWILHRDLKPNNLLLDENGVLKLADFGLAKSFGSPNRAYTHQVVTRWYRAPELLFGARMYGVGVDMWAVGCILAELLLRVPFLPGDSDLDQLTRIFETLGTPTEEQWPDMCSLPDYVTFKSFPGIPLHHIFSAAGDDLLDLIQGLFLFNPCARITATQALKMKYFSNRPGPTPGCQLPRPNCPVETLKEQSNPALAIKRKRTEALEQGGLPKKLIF
T2 sequence (P51946 whole entry partner): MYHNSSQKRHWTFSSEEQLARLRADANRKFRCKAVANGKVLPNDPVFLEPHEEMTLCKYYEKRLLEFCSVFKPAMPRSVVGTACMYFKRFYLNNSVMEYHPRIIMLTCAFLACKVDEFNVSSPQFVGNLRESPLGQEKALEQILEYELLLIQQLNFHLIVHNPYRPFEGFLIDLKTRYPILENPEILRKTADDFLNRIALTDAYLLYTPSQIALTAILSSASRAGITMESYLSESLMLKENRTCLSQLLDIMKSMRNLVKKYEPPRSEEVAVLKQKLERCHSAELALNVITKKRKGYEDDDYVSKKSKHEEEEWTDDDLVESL
Source text: as §1, with “Cdk7,” for “Cdk1,”, “H,” for “B,”, “H/glutathione” for “B/glutathione”, “protein-Cdk7” for “protein-Cdk1”, “H-Cdk7” for “B-Cdk1”, “Protease.” for “Protease and was purified by HPLC column chromatography.”
For the measurement of the activity of cyclin H-Cdk7, a synthetic peptide ([…] was used as the substrate.
as §2, with “cyclin H-Cdk7, 25” for “cyclin B-Cdk1, 100”, “for 45” for “for 30”
as §3
A representative compound of the compounds according to the invention was selected, and the IC50 value of this compound for the cyclin H-Cdk7 activity was determined.

cyclin T1-Cdk9 = molecular target: T3, cyclin T1-Cdk9 (Homo sapiens, UniProt P50750); test: Cdk9 inhibitory action: cyclin T1-Cdk9 kinase activity; conditions: cyclin T1-Cdk9, 50 μM ATP
T3 construct: made in house; host or cells: insect cell Sf9 (baculovirus)
T3 sequence (P50750 whole entry): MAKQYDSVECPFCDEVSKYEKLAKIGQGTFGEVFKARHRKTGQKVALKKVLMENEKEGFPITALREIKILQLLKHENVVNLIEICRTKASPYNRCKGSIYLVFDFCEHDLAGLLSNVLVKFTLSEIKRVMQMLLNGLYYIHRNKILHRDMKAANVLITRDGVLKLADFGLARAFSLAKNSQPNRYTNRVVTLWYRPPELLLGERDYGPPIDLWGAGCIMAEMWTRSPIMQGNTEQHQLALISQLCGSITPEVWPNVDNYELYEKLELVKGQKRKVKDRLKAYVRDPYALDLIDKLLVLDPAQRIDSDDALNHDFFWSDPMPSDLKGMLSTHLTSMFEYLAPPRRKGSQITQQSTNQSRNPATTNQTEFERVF
T3 sequence (O60563 whole entry partner): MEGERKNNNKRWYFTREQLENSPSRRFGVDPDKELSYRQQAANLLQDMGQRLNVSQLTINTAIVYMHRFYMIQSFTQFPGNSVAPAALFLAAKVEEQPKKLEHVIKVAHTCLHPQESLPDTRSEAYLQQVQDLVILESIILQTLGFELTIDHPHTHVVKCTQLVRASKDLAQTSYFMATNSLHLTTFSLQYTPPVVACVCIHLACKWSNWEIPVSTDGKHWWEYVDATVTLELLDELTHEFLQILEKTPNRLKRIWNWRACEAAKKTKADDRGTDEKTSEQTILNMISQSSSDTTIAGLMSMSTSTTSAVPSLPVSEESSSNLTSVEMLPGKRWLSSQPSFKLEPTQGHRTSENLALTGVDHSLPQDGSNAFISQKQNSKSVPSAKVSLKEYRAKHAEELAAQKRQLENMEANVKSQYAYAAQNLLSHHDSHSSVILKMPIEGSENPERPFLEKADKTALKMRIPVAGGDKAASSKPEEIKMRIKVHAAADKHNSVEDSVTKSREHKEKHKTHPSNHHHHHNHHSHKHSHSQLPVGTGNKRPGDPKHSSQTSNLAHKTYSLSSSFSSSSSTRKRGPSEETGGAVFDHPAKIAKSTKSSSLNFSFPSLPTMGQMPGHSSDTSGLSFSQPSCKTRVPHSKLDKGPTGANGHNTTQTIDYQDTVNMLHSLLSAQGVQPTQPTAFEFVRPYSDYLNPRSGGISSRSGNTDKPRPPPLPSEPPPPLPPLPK
Source text: The cDNA of Cdk9, and the cDNA of a fusion protein of cyclin T1, an activating factor of Cdk9, and glutathione S-transferase, were integrated into a baculovirus expression vector to prepare a recombinant baculovirus. This was co-transfected into insect cell Sf9 to express an active complex of the cyclin T1/glutathione S-transferase fusion protein-Cdk9 at a high level. The cells were recovered and solubilized, and the active complex was adsorbed onto Glutathione Sepharose, and then was purified by elution with 10 mM reductive glutathione. The solution containing the eluted active complex was dialyzed against B buffer (composition: 20 mM Tris-hydrochloric acid buffer (pH 7.4)/200 mM sodium chloride/0.1% Tween-20/10 mM 2-mercaptoethanol/1 mM dithiothreitol/10% glycerol) to remove the reductive glutathione.
For the measurement of the activity of cyclin T1-Cdk9, a synthetic peptide ([…] was used as the substrate.
as §2, with “cyclin T1-Cdk9, 25” for “cyclin B-Cdk1, 100”, “and 0.5” for “and 1”, “for 20” for “for 30”
Addition of the compound according to the invention to the reaction system was carried out by first preparing a dilution series of solutions of the compound in dimethylsulfoxide (DMSO), and adding […] of the dilutions. A control was provided by adding 1.1 μL of DMSO to the reaction system.
A representative compound of the compounds according to the invention was selected, and the IC50 value (nM) of this compound for the cyclin T1-Cdk9 activity was determined.

| Compound | pIC50 (cyclin B-Cdk1) | pIC50 (cyclin H-Cdk7) | pIC50 (cyclin T1-Cdk9) |
| --- | --- | --- | --- |
| Cc1cc(-c2cnc(Nc3cnc(CN4CCN(C)CC4)cn3)s2)nc(OC2CCCCC2)n1 [Example 1, 5-[2-(cyclohexyloxy)-6-methyl-4-pyrimidinyl]-2-[5-(4-methyl-1-piperazinyl)methyl-2-pyrazinyl]amino-1,3-thiazole] | 6.22 | 6.28 | 5.60 |
| Cc1cc(-c2cnc(Nc3cnc(CN4CCC(N(C)C)C4)cn3)s2)nc(OC2CCCCC2)n1 (centres unmarked) [Example 13, 5-[2-(cyclohexyloxy)-6-methyl-4-pyrimidinyl]-2-[5-(3-dimethylamino-1-pyrrolidinyl)methyl-2-pyrazinyl]amino-1,3-thiazole] | 6.21 | 6.43 | 6.37 |
| Cc1cc(-c2cnc(Nc3cnc(CN4CCN(C)CC4)cn3)s2)nc(NC2CCCCC2)n1 [Example 55, 5-[2-(cyclohexylamino)-6-methyl-4-pyrimidinyl]-2-[5-(4-methyl-1-piperazinyl)methyl-2-pyrazinyl]amino-1,3-thiazole] | 6.12 | 6.34 | 5.85 |
| Cc1cc(-c2cnc(Nc3cnc(CN4CCCC4)cn3)s2)nc(SC2CCCCC2)n1 [Example 93, 5-[2-(cyclohexylthio)-6-methyl-4-pyrimidinyl]-2-[5-(1-pyrrolidinyl)methyl-2-pyrazinyl]amino-1,3-thiazole] | 6.06 | 6.85 | 6.64 |
| Cc1cc(-c2cnc(Nc3cnc(CN4CCC(N(C)C)C4)cn3)s2)nc(SC2CCCCC2)n1 (centres unmarked) [Example 94, 5-[2-(cyclohexylthio)-6-methyl-4-pyrimidinyl]-2-[5-(3-dimethylamino-1-pyrrolidinyl)methyl-2-pyrazinyl]amino-1,3-thiazole] | 6.04 | 7.04 | 6.57 |
| Cc1cc(-c2cnc(Nc3cnc(CNC(C)C)cn3)s2)nc(SC2CCCCC2)n1 [Example 96, 5-[2-(cyclohexylthio)-6-methyl-4-pyrimidinyl]-2-[5-(isopropylamino)methyl-2-pyrazinyl]amino-1,3-thiazole] | 6.25 | 6.80 | 6.85 |
| Cc1cc(-c2cnc(Nc3cnc(CNCCO)cn3)s2)nc(SC2CCCCC2)n1 [Example 99, 5-[2-(cyclohexylthio)-6-methyl-4-pyrimidinyl]-2-[5-(2-hydroxyethylamino)methyl-2-pyrazinyl]amino-1,3-thiazole] | – | 6.92 | 7.01 |
| Cc1cc(-c2cnc(Nc3cnc(CN4CCN(C)CC4)cn3)s2)nc(Sc2ccccc2Cl)n1 [Example 109, 5-[2-(2-chlorophenylthio)-6-methyl-4-pyrimidinyl]-2-[5-(4-methyl-1-piperazinyl)methyl-2-pyrazinyl]amino-1,3-thiazole] | 6.37 | 6.55 | 6.19 |
| CC(=O)N1CCN(Cc2ccc(Nc3ncc(-c4cc(C)nc(OC5CCCCC5)n4)s3)nc2)CC1 [Example 125, 5-[2-(cyclohexyloxy)-6-methyl-4-pyrimidinyl]-2-[5-(4-acetyl-1-piperazinyl)methyl-2-pyridyl]amino-1,3-thiazole] | 5.92 | 6.43 | 6.19 |
| Cc1cc(-c2cnc(Nc3ccc(CN4CCC[C@H]4CO)cn3)s2)nc(NC2CCCCC2)n1 [Example 137, (2S)-5-[2-(cyclohexylamino)-6-methyl-4-pyrimidinyl]-2-[5-(2-hydroxymethyl-1-pyrrolidinyl)methyl-2-pyridyl]amino-1,3-thiazole] | 5.92 | 5.92 | 5.96 |
